Data taken from article PMC6098011, “Insights into degradation mechanism of N-end rule substrates by p62/SQSTM1 autophagy adapter” (Nature Communications, 2018).
Entries after “also recorded” stand apart in the source; their conditions may differ.

How the values were obtained:
[1] = biological target: T1, MBP-PB1-ZZ WT (p62 residues 1–181) (Homo sapiens, UniProt Q13501); test: FP binding assay, MBP-PB1-ZZ WT
T1 construct: The PB1-ZZ-domain of p62 (residues 1–181) WT and various mutants were expressed as MBP-fused forms; made in house; host or cells: Escherichia coli BL21(DE3)
Description: The PB1-ZZ-domain of p62 (residues 1–181) WT and various mutants were expressed as MBP-fused forms. […] The ZZ-domain (residues 122–181) WT and various mutants were expressed as GST-fused forms.
FITC-labeled R-BiP/GRP78 peptide and all mutant peptides were dissolved to 1 mM concentration in buffers (50 mM MES pH 6.0 [or 50 mM Tris pH 8.0], 100 mM NaCl, and 1 mM DTT) and sequentially diluted with binding buffer up to 100 nM in each 40 μL reaction well. Purified GST-ZZ, MBP-PB1-ZZ WT and the respective mutants were also serially diluted in binding buffer and mixed into each reaction well at a concentration ranging from 400 nM to 3 mM. […] A nonlinear graph of p62 construct concentration-dependent polarization was calculated and drawn using GraphPad Prism 7 software.

[2] = test system: degradation of R-BiP protein and p62 in HeLa cells; test: Cycloheximide-chase protein degradation assay; assay type: cell-based; conditions: HA-p62 and Ub-R-BiP transfected, chloroquine 30 μM, 16 hr, 50 μg/ml cycloheximide 16 hr, immunoblotting
Description: HeLa cells were cultured in DMEM (HyClone) containing 10% FBS (HyClone) and 1% penicillin/streptomycin (HyClone). Cells were transiently transfected with plasmids using Lipofectamine 2000 (Invitrogen) for mammalian expression. For protein degradation analysis, HeLa cells at 80% confluence were transiently transfected with plasmids expressing HA-p62 (either WT or mutants) and Ub-R-BiP. For the blocking of protein synthesis, cells were treated with 50 μg/ml cycloheximide (Sigma-Aldrich) for […] prior to cell harvesting. Cultured cells were pelleted by centrifugation and pellets were resuspended in phosphate-buffered saline (PBS). A volume of 150 μl was then mixed with 150 μl of 5X SDS-PAGE loading buffer (125 mM Tris-HCl pH 6.8, 4% SDS, 10% 2-mercaptoethanol and 20% glycerol). Each sample was heated for 5 min and 0.1 mg of total protein was subjected to Western blotting. Following antibodies were used in this study: rabbit monoclonal anti-p62 (Cell Signaling Technology, 8025, 1:1000), rabbit polyclonal anti-R-BiP (Abfrontier, AR02-PA0001, 1:1000), mouse monoclonal anti-β-actin (Sigma-Aldrich, A5441, 1:20,000), rat monoclonal anti-HA (Roche, 1867431, 1:20,000), mouse monoclonal anti-His-HRP (Santa Cruz, sc-8036 HRP, 1:20,000) and mouse monoclonal anti-MBP-HRP (NEB, E8038S, 1:2000).
Supplementary Figure 7. Degradation assay of R-BiP and p62 protein […]

T1 sequence (Q13501 1-181): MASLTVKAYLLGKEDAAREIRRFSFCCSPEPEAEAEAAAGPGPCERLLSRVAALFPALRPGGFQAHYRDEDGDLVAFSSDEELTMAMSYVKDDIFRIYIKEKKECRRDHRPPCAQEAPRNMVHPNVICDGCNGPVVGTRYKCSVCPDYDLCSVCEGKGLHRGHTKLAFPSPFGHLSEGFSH

SMILES | Binding (dissociation constant) ([1]; pH 4.5) | Binding (dissociation constant) ([1]; pH 5.0) | Binding (dissociation constant) ([1]; pH 8.5) | Binding (dissociation constant) ([1]; pH 9.0) | Degradation of R-BiP protein and p62 [2]
N=C(N)NCCC[C@H](N)C(=O)N[C@@H](CCC(=O)O)C(=O)N[C@@H](CCC(=O)O)C(=O)N[C@@H](CCC(=O)O)C(=O)N[C@@H](CC(=O)O)C(=O)N[C@@H](CCCCNC(=S)Nc1ccc2c(c1)C(=O)OC21c2ccc(O)cc2Oc2cc(O)ccc21)C(=O)O [R-BiP peptide] | not detected | not detected | not detected | not detected | –
CCN(CC)CCCC(C)Nc1ccnc2cc(Cl)ccc12 (centres unmarked) [chloroquine] | – | – | – | – | blocked; also recorded: not degraded
